Experimental data as given in patent US20050272040A1, “Method for increasing synaptic growth or plasticity” (priority 2002, published 2005).

Tested on: hippocampal cells
Test: Real-time RT-PCR of genes induced by neurotrophin treatment of hippocampal cultures
Format: cell-based, rat
Conditions: 50 ng/mL, RT-PCR vs control, average ± standard error
Procedure: The molecular genetics underlying BDNF-evoked plasticity were examined by expression profiling using cDNA microarrays on a population of hippocampal cells in vitro. Synaptic effects of BDNF are observed within 20 minutes of exposure (Levine et al. (1996) supra; Lessmann and Heumann (1998) supra; Schinder et al. (2000) supra). A 3-hour BDNF treatment has been used to identify several genes with roles in synaptic plasticity (Thakker-Varia et al. (2001) supra). Consequently, to reveal immediate, as well as downstream transcriptional changes, both acute (20 minutes) and longer treatment (3 hours) with BDNF were used herein. […] Two independent Atlas arrays were performed using RNA from hippocampal cells treated for either 20 minutes or 3 hours of BDNF (50 ng/mL) and control sister cultures.
Of those genes selected, the regulation of 7% at 20 minutes and 40% at 3 hours were validated, although the magnitude of regulation was not always identical to that observed on the microarray. To focus on genes specifically involved in plasticity, a related neurotrophin, nerve growth factor (NGF), not inducing synaptic plasticity (Levine et al. (1996) supra), served as a control.
Time-mated pregnant rats were sacrificed by CO2 asphyxiation in accordance with institutional guidelines for care and use of animals. Fetuses were removed by caesarean section and transferred to a sterile petri dish with phosphate-buffered saline. Fetal hippocampi were dissected from surrounding brain tissue and meninges were completely removed. Low-density cultures of dissociated embryonic day 18 rat hippocampi (Sprague Dawley from Hilltop Laboratories, Scottsdale, Pa.) were prepared using standard methods (Thakker-Varia et al. (2001) supra). Briefly, pooled tissue from each litter was mechanically dissociated in nutrient medium containing 7.5% fetal bovine serum and plated on poly-D-lysine-coated culture dishes at 350,000 cells/dish. Cultures were maintained in serum-free medium (Thakker-Varia et al., 2001) for 10-14 days and contained pure neurons.
Total cellular RNA was prepared from neuronal cultures treated with either BDNF (50 ng/ml) or vehicle (water) for either 20 min or 3 hr by the guanidine isothiocyanate method and CsCl gradients (Thakker-Varia et al., 2001). DNAse-treated total RNA was prepared from neurotrophin or control hippocampal cultures and reverse transcribed using gene specific primers. Radioactively labeled probes were then hybridized to Atlas Arrays Rat 1.2 (Clontech, Palo Alto, Calif.) according to manufacturer's protocol. Arrays were performed in duplicate with an independent source of RNA. The hybridization pattern was analyzed on a phosphorimager and normalized to the global hybridization signal. Analysis was performed by Clontech using 1.7-fold change as criteria for significance. All transcriptional changes were confirmed by real time RT-PCR on independent samples (see below).
cDNA (100 μl) was prepared from 2 μg control or BDNF-treated RNA using random primers and Superscript II reverse transcriptase. 25 μl PCR reactions were then carried out using gene specific primers designed by Primer Express software and TaqMan MGB probes (Applied Biosystems 7000 Sequence Detection System, Foster City, Calif.). Duplicate wells were included for each condition and primer pair. Primers specific to the housekeeping gene, glyceraldehyde-3-phosphate dehydrogenase (GAPDH) were used as an internal control. Data analysis was performed according to the protocol provided by Applied Biosystems.

Substance: BDNF: neurotrophin, 50 ng/ml, Preprotech; induces synaptic plasticity in hippocampal neurons
- Fold Change Arc (3 Hour BDNF Treatment): 34.8 ± 4.3 fold
- Fold Change CyclinD1 (3 Hour BDNF Treatment): 3.3 ± 0.5 fold
- Fold Change EGR1 (3 Hour BDNF Treatment): 6.6 ± 0.9 fold
- Fold Change Fra2 (3 Hour BDNF Treatment): 2.3 ± 0.4 fold
- Fold Change Kv + 1.1 (3 Hour BDNF Treatment): 1.4 ± 0.1 fold
- Fold Change Na + ch (3 Hour BDNF Treatment): 1.8 ± 0.2 fold
- Fold Change PTP1B (3 Hour BDNF Treatment): 1.4 ± 0.1 fold
- Fold Change SSTR4 (3 Hour BDNF Treatment): 1.7 ± 0.1 fold
- Fold Change SgII (3 Hour BDNF Treatment): 5.1 ± 1.2 fold
- Fold Change VGF (3 Hour BDNF Treatment): 6.5 ± 1.5 fold
- Fold Change c-fos (3 Hour BDNF Treatment): 2.3 ± 0.4 fold
- Fold Change NPY (3 Hour BDNF Treatment, n = 5): 1.9 ± 0.3 fold
- Fold Change UNC5H2 (3 Hour BDNF Treatment, n = 5): 2.2 ± 0.6 fold
- Fold Change Arc (20 Minute BDNF Treatment): 13.7 ± 5.0 fold
- Fold Change EGR1 (20 Minute BDNF Treatment): 4.3 ± 0.8 fold
- Fold Change c-fos (20 Minute BDNF Treatment): 2.2 ± 0.4 fold
